Source: EP1285920A1, “C10 Ester sustituted taxanes as antitumor agents” (Florida State University Research Foundation, Inc., priority 2001, dated 2003)

Columns and labels:
SKMES lung carcinoma [1] = assay: In vivo evaluation of compound 0503 against SKMES human lung carcinoma xenograft, i.v. dose range (Example 20); settings: for % Total Response: complete or partial responses among evaluable animals; for MDS (n): mean days of survival until neoplasm reached 2.0 g, 6 mice, terminated Day 60; for survival extension / MDS: other mice; for MDS: tumor 2.0 g
Method: The antitumor compound was prepared in a vehicle of 10% ethanol and 90% Liposyn III in the manner as described for Emulsion 3 of Example 9.
Treatment groups consisted of: vehicle only (Group 1), and antitumor compound 0503 (dosages of 104 mg/kg, 72.8 mg/kg, 41.6 mg/kg, and 10.4 mg/kg; Groups 2-5, respectively).

A2780 ovarian carcinoma = system: A2780 ovarian carcinoma
Method: Dosing was initiated on Day 1. […] Taxotere was given i.v. on a qd x 1 schedule at a dose of 70 mg/kg. […] The study was terminated on Day 60. Treatment groups are detailed in Table 7.

SKMES lung carcinoma [2] = assay: In vivo evaluation of oral administration against SKMES human lung carcinoma xenograft (Example 21)
Method: Female Nu/Nu mice (6-8 weeks of age; implanted with 1 mm^3 SKMES lung carcinoma fragments in the flank) were sorted into treatment groups of six mice each. […] Treatments were administered as a single oral bolus on Day 1, and the study was terminated on Day 60.
(§1) A complete response is obtained if the tumor is not palpable at the end of the study.
The total response rate is defined as the percentage of evaluable animals (excluding deaths due to procedure or toxicity) in a group that experience complete or partial responses at the termination of the study.

[3] = system: NCI-H1299 (H1299) carcinoma; assay: In vivo evaluation against NCI-H1299 human lung carcinoma xenograft (i.v., Example 11)
Method: Antitumor compounds were formulated for an i.v. dosing regime prepared in the following vehicle: 10% ethanol, 10% Cremophor and 80% isotonic saline.
Vehicle control animals were dosed twice intravenously with half the total volume being given separated by one hour. The study was terminated on Day 60.
as §1
A tumor scoring system was designed to provide a more quantitative ranking of efficacy (therapeutic potential) among the antitumor agents evaluated against the different human solid tumor xenografts. Each mouse in a study was given a score of from 1 to 10 at the end of the study. The scores can be summarized as follows:
The individual score for each mouse was averaged into a mean score for each treatment group. […]
The treatment protocol for the H1299 test was identical to the SK-MES test protocol. […]

[4] = 10.4 mg/kg, single IV bolus Day 1
[5] = 10.4 mg/kg, single IV bolus Day 1, number of mice of 6, Day 60
[6] = 41.6 mg/kg, single IV bolus Day 1
[7] = 41.6 mg/kg, single IV bolus Day 1, number of mice of 6, Day 60
[8] = 72.8 mg/kg, single IV bolus Day 1
[9] = 72.8 mg/kg, single IV bolus Day 1, number of mice of 6, Day 60
[10] = 104 mg/kg, single IV bolus Day 1
[11] = 104 mg/kg, single IV bolus Day 1, number of mice of 6, Day 60
[12] = SKMES, 72.8 mg/kg single IV bolus (Group 3)
[13] = SKMES, 72.8 mg/kg single IV bolus (Group 3), six mice
[14] = SKMES, 104 mg/kg single IV bolus (Group 2)
[15] = number of mice, i.v. qd x 1 at estimated MTD (Taxol 24 mg/kg, Taxotere 70 mg/kg, 0983 72.6 mg/kg), 5 mice/group (Taxotere 6), Day 60
[16] = number of mice, single oral bolus Day 1, mg/kg: Taxol 40, 0687 228, 0503 73, 6 mice/group, Day 60

## CCC(=O)O[C@H]1C(=O)[C@@]2(C)[C@H]([C@H](OC(=O)c3ccccc3)[C@]3(O)C[C@H](OC(=O)[C@H](O)[C@@H](NC(=O)OC(C)(C)C)c4ccccn4)C(C)=C1C3(C)C)[C@]1(OC(C)=O)CO[C@@H]1C[C@@H]2O [Compound 0503]
SKMES lung carcinoma [1]; [4]
  % Total Response: 0%
  MDS (n): 26.0 ± 2.5 (6) days
SKMES lung carcinoma [1]; 10.4 mg/kg, single IV bolus Day 1, number of mice of 6
  Toxic Deaths: 0
SKMES lung carcinoma [1]; [5]
  Partial Response: 0
  Stable Disease: 0
  Survivors: 0
SKMES lung carcinoma [1]; [6]
  % Total Response: 0%
  MDS (n): 33.8 ± 3.4 (5) days
SKMES lung carcinoma [1]; 41.6 mg/kg, single IV bolus Day 1, number of mice of 6
  Toxic Deaths: 0
SKMES lung carcinoma [1]; [7]
  Partial Response: 0
  Stable Disease: 1
  Survivors: 1
SKMES lung carcinoma [1]; [8]
  % Total Response: 33.3%
  MDS (n): 37.4 ± 5.2 (4) days
SKMES lung carcinoma [1]; 72.8 mg/kg, single IV bolus Day 1, number of mice of 6
  Toxic Deaths: 0
SKMES lung carcinoma [1]; [9]
  Partial Response: 1
  Stable Disease: 0
  Survivors: 2
SKMES lung carcinoma [1]; [10]
  % Total Response: 50.0%
  MDS (n): 46.6 ± 3.2 (3) days
SKMES lung carcinoma [1]; 104 mg/kg, single IV bolus Day 1, number of mice of 6
  Toxic Deaths: 0
SKMES lung carcinoma [1]; [11]
  Partial Response: 0
  Stable Disease: 0
  Survivors: 3
SKMES lung carcinoma [1]; [12]
  survival extension: 114%
  MDS: 37.4 days
SKMES lung carcinoma [1]; [13]
  Complete Response: One
  Partial Response: one
SKMES lung carcinoma [1]; SKMES, 104 mg/kg single IV bolus (Group 2), 10% ethanol, 90% Liposyn III, six mice
  complete tumor regressions: Three
SKMES lung carcinoma [1]; [14]
  survival extension: 167%
  MDS: 46.6 days
A2780 ovarian carcinoma; A2780, i.v. qd x 1
  antitumor activity: did not cause any complete responses, partial responses, or cases of stable disease
A2780 ovarian carcinoma; mean days of survival until neoplasm reached 2.0 g, i.v. qd x 1 at estimated MTD (Taxol 24 mg/kg, Taxotere 70 mg/kg, 0983 72.6 mg/kg), 5 mice/group (Taxotere 6), terminated Day 60
  MDS (n): 32.4 ± 4.7 (5) days
A2780 ovarian carcinoma; number of mice, i.v. qd x 1 at estimated MTD (Taxol 24 mg/kg, Taxotere 70 mg/kg, 0983 72.6 mg/kg), 5 mice/group (Taxotere 6)
  Toxic Deaths: 0
A2780 ovarian carcinoma; [15]
  Complete Response: 0
  Partial Respons: 0
  Stable Disease: 0
  Survivors: 0
A2780 ovarian carcinoma; tumor scoring system, i.v. qd x 1 at estimated MTD (Taxol 24 mg/kg, Taxotere 70 mg/kg, 0983 72.6 mg/kg), 5 mice/group (Taxotere 6)
  Mean Score: 2.8 ± 0.2
SKMES lung carcinoma [2]; SKMES, 0503 73 mg/kg single oral bolus, six mice
  complete responses: three
SKMES lung carcinoma [2]; complete or partial responses among evaluable animals, single oral bolus Day 1, mg/kg: Taxol 40, 0687 228, 0503 73
  % Total Response: 50.0%
SKMES lung carcinoma [2]; mean days of survival until neoplasm reached 2.0 g, single oral bolus Day 1, mg/kg: Taxol 40, 0687 228, 0503 73, 6 mice/group, terminated Day 60
  MDS (n): 29.8 ± 3.6 (3) days
SKMES lung carcinoma [2]; number of mice, single oral bolus Day 1, mg/kg: Taxol 40, 0687 228, 0503 73, 6 mice/group
  Toxic Deaths: 0
SKMES lung carcinoma [2]; [16]
  Complete Response: 3
  Partial Response: 0
  Stable Disease: 0
  Survivors: 3
[3]; i.v. split dose qd x 1
  Partial Response: 0
  Stable Disease: 3
  antitumor activity: significant efficacy
[3]; i.v. split dose qd x 1, six mice per group
  Survivors: 5
[3]; tumor score 1 to 10 per mouse, group mean
  Mean Score: 5.5 ± 1.6
